For the assay, the target named is T1, full-length ATR (Homo sapiens, UniProt Q13535).
T1 construct: Assays were carried out at 25° C. in the presence of 5 nM full-length ATR
Kind of assay: ATR Inhibition Assay (radioactive-phosphate incorporation). It is filed as biochemical. As to conditions: Ki(app); 5 nM full-length ATR, 10 μM ATP, 800 μM target peptide, 25° C. The protocol: Compounds were screened for their ability to inhibit ATR kinase using a radioactive-phosphate incorporation assay. Assays were carried out in a mixture of 50 mM Tris/HCl (pH 7.5), 10 mM MgCl2 and 1 mM DTT. Final substrate concentrations were 10 μM [γ-33P]ATP (3mCi 33P ATP/mmol ATP, Perkin Elmer) and 800 μM target peptide (ASELPASQPQPFSAKKK).
Assays were carried out at 25° C. in the presence of 5 nM full-length ATR. An assay stock buffer solution was prepared containing all of the reagents listed above, with the exception of ATP and the test compound of interest. 13.5 μL of the stock solution was placed in a 96 well plate followed by addition of 2 μL of DMSO stock containing serial dilutions of the test compound (typically starting from a final concentration of 15 μM with 3-fold serial dilutions) in duplicate (final DMSO concentration 7%). The plate was pre-incubated for 10 minutes at 25° C. and the reaction initiated by addition of 15 μL [γ-33P]ATP (final concentration 10 μM).
The reaction was stopped after […] by the addition of 30 μL 0.1M phosphoric acid containing 2 mM ATP. A multiscreen phosphocellulose filter 96-well plate (Millipore, Cat no. MAPHN0B50) was pretreated with 100 μL 0.2M phosphoric acid prior to the addition of 45 μL of the stopped assay mixture. The plate was washed with 5×200 μL 0.2M phosphoric acid. After drying, 100 μL Optiphase ‘SuperMix’ liquid scintillation cocktail (Perkin Elmer) was added to the well prior to scintillation counting (1450 Microbeta Liquid Scintillation Counter, Wallac).
After removing mean background values for all of the data points, Ki(app) data were calculated from non-linear regression analysis of the initial rate data using the Prism software package (GraphPad Prism version 3.0cx for Macintosh, GraphPad Software, San Diego Calif., USA).

Structures are written as SMILES.

T1 sequence (Q13535 whole entry): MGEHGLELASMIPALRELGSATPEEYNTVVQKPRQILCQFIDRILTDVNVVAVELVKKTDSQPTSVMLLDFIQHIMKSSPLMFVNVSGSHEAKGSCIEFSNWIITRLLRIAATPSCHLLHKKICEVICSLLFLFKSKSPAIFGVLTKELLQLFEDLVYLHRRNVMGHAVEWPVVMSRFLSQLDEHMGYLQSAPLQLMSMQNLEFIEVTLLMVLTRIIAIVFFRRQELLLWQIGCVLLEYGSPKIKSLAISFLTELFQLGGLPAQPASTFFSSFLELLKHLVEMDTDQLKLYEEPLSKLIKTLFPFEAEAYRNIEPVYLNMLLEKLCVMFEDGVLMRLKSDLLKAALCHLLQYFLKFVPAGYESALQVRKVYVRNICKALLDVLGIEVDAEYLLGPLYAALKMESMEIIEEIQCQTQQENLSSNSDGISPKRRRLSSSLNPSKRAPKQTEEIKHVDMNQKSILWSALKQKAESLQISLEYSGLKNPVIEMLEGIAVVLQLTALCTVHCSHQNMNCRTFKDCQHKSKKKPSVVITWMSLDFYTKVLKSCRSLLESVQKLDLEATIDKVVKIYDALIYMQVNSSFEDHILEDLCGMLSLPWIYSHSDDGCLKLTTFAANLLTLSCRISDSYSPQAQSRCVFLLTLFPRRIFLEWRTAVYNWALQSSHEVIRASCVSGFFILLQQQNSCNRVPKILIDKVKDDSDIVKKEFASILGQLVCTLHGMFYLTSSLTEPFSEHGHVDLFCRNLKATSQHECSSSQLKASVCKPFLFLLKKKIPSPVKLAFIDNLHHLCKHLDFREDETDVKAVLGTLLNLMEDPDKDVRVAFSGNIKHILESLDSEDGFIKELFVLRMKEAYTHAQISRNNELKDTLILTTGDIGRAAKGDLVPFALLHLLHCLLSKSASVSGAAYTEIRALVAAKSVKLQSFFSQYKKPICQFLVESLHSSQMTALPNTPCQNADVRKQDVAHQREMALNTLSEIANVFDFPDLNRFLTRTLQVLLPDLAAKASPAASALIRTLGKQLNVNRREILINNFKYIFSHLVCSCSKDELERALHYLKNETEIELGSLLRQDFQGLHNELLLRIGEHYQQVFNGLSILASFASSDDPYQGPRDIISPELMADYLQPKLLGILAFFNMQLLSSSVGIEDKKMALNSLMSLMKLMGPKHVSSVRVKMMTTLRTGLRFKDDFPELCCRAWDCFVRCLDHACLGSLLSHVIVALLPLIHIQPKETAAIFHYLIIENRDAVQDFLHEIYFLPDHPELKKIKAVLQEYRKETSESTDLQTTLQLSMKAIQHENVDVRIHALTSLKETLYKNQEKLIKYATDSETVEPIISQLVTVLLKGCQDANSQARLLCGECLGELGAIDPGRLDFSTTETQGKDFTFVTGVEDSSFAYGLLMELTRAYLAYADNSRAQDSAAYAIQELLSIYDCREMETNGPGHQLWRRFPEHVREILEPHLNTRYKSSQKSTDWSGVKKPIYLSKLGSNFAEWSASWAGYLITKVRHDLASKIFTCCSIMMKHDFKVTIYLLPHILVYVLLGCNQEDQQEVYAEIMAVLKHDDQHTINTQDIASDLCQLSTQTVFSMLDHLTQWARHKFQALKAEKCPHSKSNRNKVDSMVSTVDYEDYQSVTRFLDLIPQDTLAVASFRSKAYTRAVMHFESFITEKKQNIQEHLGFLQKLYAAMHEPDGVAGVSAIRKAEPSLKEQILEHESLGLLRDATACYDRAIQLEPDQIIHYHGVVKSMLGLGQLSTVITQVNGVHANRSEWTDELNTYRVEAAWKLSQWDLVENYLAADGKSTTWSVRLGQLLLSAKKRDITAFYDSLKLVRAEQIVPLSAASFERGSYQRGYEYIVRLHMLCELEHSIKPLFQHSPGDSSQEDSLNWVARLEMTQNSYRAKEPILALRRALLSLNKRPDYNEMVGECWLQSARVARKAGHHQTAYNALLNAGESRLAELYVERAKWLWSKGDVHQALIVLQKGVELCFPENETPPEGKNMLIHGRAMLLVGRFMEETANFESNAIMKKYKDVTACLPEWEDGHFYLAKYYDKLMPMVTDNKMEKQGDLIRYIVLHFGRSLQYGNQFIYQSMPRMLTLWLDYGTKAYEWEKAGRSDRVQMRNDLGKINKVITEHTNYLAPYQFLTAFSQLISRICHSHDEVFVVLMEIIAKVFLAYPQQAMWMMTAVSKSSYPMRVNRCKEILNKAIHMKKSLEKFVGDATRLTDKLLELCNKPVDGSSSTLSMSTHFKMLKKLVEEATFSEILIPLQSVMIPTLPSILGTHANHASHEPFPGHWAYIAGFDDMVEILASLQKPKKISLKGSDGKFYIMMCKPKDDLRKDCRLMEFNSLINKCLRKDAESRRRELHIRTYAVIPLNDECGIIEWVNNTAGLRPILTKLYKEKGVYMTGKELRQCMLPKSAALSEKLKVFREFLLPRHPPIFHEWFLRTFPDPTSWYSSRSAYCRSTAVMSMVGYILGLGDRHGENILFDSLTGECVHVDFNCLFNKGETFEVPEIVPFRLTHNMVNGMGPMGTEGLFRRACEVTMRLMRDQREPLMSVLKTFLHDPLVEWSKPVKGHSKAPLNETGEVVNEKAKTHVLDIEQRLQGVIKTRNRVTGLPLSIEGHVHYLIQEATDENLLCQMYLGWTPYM

In the case of `CC(C)S(=O)(=O)c1ccc(-c2cnc3[nH]cc(-c4cccnc4)c3n2)cc1` [Compound I-1, 2-(4-Isopropylsulfonylphenyl)-7-(3-pyridyl)-5H-pyrrolo[2,3-b]pyrazine], the Ki lay in the range of 10 to 50 nM.

For the molecule `CC(C)S(=O)(=O)c1ccc(-c2cnc3[nH]cc(C#Cc4ccccc4)c3n2)cc1` [Compound I-2, 2-(4-Isopropylsulfonylphenyl)-7-(2-phenylethynyl)-5H-pyrrolo[2,3-b]pyrazine], the Ki lay in the range of 10 to 50 nM.

For `CC(C)S(=O)(=O)c1ccc(-c2cnc3[nH]cc(-c4cc(-c5ccccc5)no4)c3n2)cc1` [Compound I-3, 5-[2-(4-Isopropylsulfonylphenyl)-5H-pyrrolo[2,3-b]pyrazin-7-yl]-3-phenyl-isoxazole], the Ki is no more than 10 nM.

`CC(N)c1cccc(-c2cc(-c3c[nH]c4ncc(-c5ccc(S(=O)(=O)C(C)C)cc5)nc34)on2)c1` (stereo not drawn) [Compound I-4, 1-[3-[5-[2-(4-isopropylsulfonylphenyl)-5H-pyrrolo[2,3-b]pyrazin-7-yl]isoxazol-3-yl]phenyl]ethanamine]: the Ki was no more than 10 nM.

For the molecule `CC(C)S(=O)(=O)c1ccc(-c2cnc3[nH]cc(-c4ccccc4)c3n2)cc1` [Compound I-5, 2-(4-isopropylsulfonylphenyl)-7-phenyl-5H-pyrrolo[2,3-b]pyrazine], the Ki is greater than 50 nM.

Consider `CC(C)S(=O)(=O)c1ccc(-c2cnc3[nH]cc(-c4cnc5[nH]ccc5c4)c3n2)cc1` [Compound I-6, 2-(4-isopropylsulfonylphenyl)-7-(1H-pyrrolo[2,3-b]pyridin-5-yl)-5H-pyrrolo[2,3-b]pyrazine], for which the Ki is no more than 10 nM.

With `CCn1cc(-c2c[nH]c3ncc(-c4ccc(S(=O)(=O)C(C)C)cc4)nc23)cn1` [Compound I-7, 7-(1-ethylpyrazol-4-yl)-2-(4-isopropylsulfonylphenyl)-5H-pyrrolo[2,3-b]pyrazine], the Ki was greater than 50 nM.

`CC(C)S(=O)(=O)c1ccc(-c2cnc3[nH]cc(-c4ccccc4C#N)c3n2)cc1` [Compound I-8, 2-[2-(4-isopropylsulfonylphenyl)-5H-pyrrolo[2,3-b]pyrazin-7-yl]benzonitrile]: the Ki was greater than 50 nM.

For the molecule `CC(C)S(=O)(=O)c1ccc(-c2cnc3[nH]cc(-c4cnc(N)cn4)c3n2)cc1` [Compound I-9, 5-[2-(4-isopropylsulfonylphenyl)-5H-pyrrolo[2,3-b]pyrazin-7-yl]pyrazin-2-amine], the Ki was greater than 50 nM.

On to `CC(C)S(=O)(=O)c1ccc(-c2cnc3[nH]cc(-c4ccncc4)c3n2)cc1` [Compound I-10, 2-(4-isopropylsulfonylphenyl)-7-(4-pyridyl)-5H-pyrrolo[2,3-b]pyrazine], for which the Ki lay within 10 to 50 nM.

With `CC(C)S(=O)(=O)c1ccc(-c2cnc3[nH]cc(-c4ccc(OCCCN(C)C)nc4)c3n2)cc1` [Compound I-11, 3[[5-[2-(4-isopropylsulfonylphenyl)-5H-pyrrolo[2,3-b]pyrazin-7-yl]-2-pyridyl]oxy]-N,N-dimethyl-propan-1-amine], the Ki is greater than 50 nM.

`CC(C)S(=O)(=O)c1ccc(-c2cnc3[nH]cc(-c4cccc5[nH]ccc45)c3n2)cc1` [Compound I-12, 7-(1H-indol-4-yl)-2-(4-isopropylsulfonylphenyl)-5H-pyrrolo[2,3-b]pyrazine]: the Ki was greater than 50 nM.

On to `CC(C)S(=O)(=O)c1ccc(-c2cnc3[nH]cc(-c4cnc(N)nc4)c3n2)cc1` [Compound I-13, 5-[2-(4-isopropylsulfonylphenyl)-5H-pyrrolo[2,3-b]pyrazin-7-yl]pyrimidin-2-amine], for which the Ki was no more than 10 nM.

`CC(C)S(=O)(=O)c1ccc(-c2cnc3[nH]cc(-c4ccccc4O)c3n2)cc1` [Compound I-14, 2-[2-(4-isopropylsulfonylphenyl)-5H-pyrrolo[2,3-b]pyrazin-7-yl]phenol]: the Ki fell in the range of 10 to 50 nM.

Turning to `COc1ccccc1-c1c[nH]c2ncc(-c3ccc(S(=O)(=O)C(C)C)cc3)nc12` [Compound I-15, 2-(4-isopropylsulfonylphenyl)-7-(2-methoxyphenyl)-5H-pyrrolo[2,3-b]pyrazine], the Ki was greater than 50 nM.

With `CC(C)S(=O)(=O)c1ccc(-c2cnc3[nH]cc(-c4ccccc4CO)c3n2)cc1` [Compound I-16, [2-[2-(4-isopropylsulfonylphenyl)-5H-pyrrolo[2,3-b]pyrazin-7-yl]phenyl]methanol], the Ki was greater than 50 nM.

With `COCc1ccccc1-c1c[nH]c2ncc(-c3ccc(S(=O)(=O)C(C)C)cc3)nc12` [Compound I-17, 2-(4-isopropylsulfonylphenyl)-7-[2-(methoxymethyl)phenyl]-5H-pyrrolo[2,3-b]pyrazine], the Ki is greater than 50 nM.

For the molecule `CC(C)S(=O)(=O)c1ccc(-c2cnc3[nH]cc(-c4ccccc4C(N)=O)c3n2)cc1` [Compound I-18, 2-[2-(4-isopropylsulfonylphenyl)-5H-pyrrolo[2,3-b]pyrazin-7-yl]benzamide], the Ki is greater than 50 nM.

For `CC(C)S(=O)(=O)c1ccc(-c2cnc3[nH]cc(-c4ccccc4C(=O)N(C)C)c3n2)cc1` [Compound I-19, 2-[2-(4-isopropylsulfonylphenyl)-5H-pyrrolo[2,3-b]pyrazin-7-yl]-N,N-dimethyl-benzamide], the Ki was greater than 50 nM.

In the case of `CC(C)S(=O)(=O)c1ccc(-c2cnc3[nH]cc(-c4scc5c4OCCO5)c3n2)cc1` [Compound I-20, 7-(2,3-dihydrothieno[3,4-b][1,4]dioxin-5-yl)-2-(4-isopropylsulfonylphenyl)-5H-pyrrolo[2,3-b]pyrazine], the Ki fell in the range of 10 to 50 nM.

Regarding `CC(C)S(=O)(=O)c1ccc(-c2cnc3[nH]cc(-c4cscc4C#N)c3n2)cc1` [Compound I-21, 4-[2-(4-isopropylsulfonylphenyl)-5H-pyrrolo[2,3-b]pyrazin-7-yl]thiophene-3-carbonitrile], the Ki was greater than 50 nM.

As for `CC(C)S(=O)(=O)c1ccc(-c2cnc3[nH]cc(-c4ccsc4)c3n2)cc1` [Compound I-22, 2-(4-isopropylsulfonylphenyl)-7-(3-thienyl)-5H-pyrrolo[2,3-b]pyrazine], the Ki is 10 to 50 nM.

In the case of `CC(C)S(=O)(=O)c1ccc(-c2cnc3[nH]cc(-c4ccc(F)nc4)c3n2)cc1` [Compound I-23, 7-(6-fluoro-3-pyridyl)-2-(4-isopropylsulfonylphenyl)-5H-pyrrolo[2,3-b]pyrazine], the Ki was in the range of 10 to 50 nM.

As for `CC(C)S(=O)(=O)c1ccc(-c2cnc3[nH]cc(-c4cccnc4F)c3n2)cc1` [Compound I-24, 7-(2-fluoro-3-pyridyl)-2-(4-isopropylsulfonylphenyl)-5H-pyrrolo[2,3-b]pyrazine], the Ki is no more than 10 nM.

In the case of `Cc1noc(C)c1-c1c[nH]c2ncc(-c3ccc(S(=O)(=O)C(C)C)cc3)nc12` [Compound I-25, 4-[2-(4-isopropylsulfonylphenyl)-5H-pyrrolo[2,3-b]pyrazin-7-yl]-3,5-dimethyl-isoxazole], the Ki is greater than 50 nM.

Turning to `Cc1ccc(-c2c[nH]c3ncc(-c4ccc(S(=O)(=O)C(C)C)cc4)nc23)s1` [Compound I-26, 2-(4-isopropylsulfonylphenyl)-7-(5-methyl-2-thienyl)-5H-pyrrolo[2,3-b]pyrazine], the Ki was 10 to 50 nM.

In the case of `Cc1cscc1-c1c[nH]c2ncc(-c3ccc(S(=O)(=O)C(C)C)cc3)nc12` [Compound I-27, 2-(4-isopropylsulfonylphenyl)-7-(4-methyl-3-thienyl)-5H-pyrrolo[2,3-b]pyrazine], the Ki was greater than 50 nM.

On to `Cc1ccsc1-c1c[nH]c2ncc(-c3ccc(S(=O)(=O)C(C)C)cc3)nc12` [Compound I-28, 2-(4-isopropylsulfonylphenyl)-7-(3-methyl-2-thienyl)-5H-pyrrolo[2,3-b]pyrazine], for which the Ki was greater than 50 nM.

`COc1ccc(-c2c[nH]c3ncc(-c4ccc(S(=O)(=O)C(C)C)cc4)nc23)cc1` [Compound I-29, 2-(4-isopropylsulfonylphenyl)-7-(4-methoxyphenyl)-5H-pyrrolo[2,3-b]pyrazine]: the Ki was greater than 50 nM.

Consider `COc1cccc(-c2c[nH]c3ncc(-c4ccc(S(=O)(=O)C(C)C)cc4)nc23)c1` [Compound I-30, 2-(4-isopropylsulfonylphenyl)-7-(3-methoxyphenyl)-5H-pyrrolo[2,3-b]pyrazine], for which the Ki was in the range of 10 to 50 nM.

On to `COc1ccc(-c2c[nH]c3ncc(-c4ccc(S(=O)(=O)C(C)C)cc4)nc23)cn1` [Compound I-31, 2-(4-isopropylsulfonylphenyl)-7-(6-methoxy-3-pyridyl)-5H-pyrrolo[2,3-b]pyrazine], for which the Ki was greater than 50 nM.

For the molecule `COc1cc(-c2c[nH]c3ncc(-c4ccc(S(=O)(=O)C(C)C)cc4)nc23)ccn1` [Compound I-33, 2-(4-isopropylsulfonylphenyl)-7-(2-methoxy-4-pyridyl)-5H-pyrrolo[2,3-b]pyrazine], the Ki is no more than 10 nM.

As to `COc1ncc(-c2c[nH]c3ncc(-c4ccc(S(=O)(=O)C(C)C)cc4)nc23)cn1` [Compound I-34, 2-(4-isopropylsulfonylphenyl)-7-(2-methoxypyrimidin-5-yl)-5H-pyrrolo[2,3-b]pyrazine], the Ki was in the range of 10 to 50 nM.

(Values after patent publication US8623869B2, “Compounds useful as inhibitors of ATR kinase” (Vertex Pharmaceuticals Incorporated, priority 2010, dated 2014).)
